Patent publication US10538498B2, “1,3,4-oxadiazole sulfonamide derivative compounds as histone deacetylase 6 inhibitor, and the pharmaceutical composition comprising the same” (Chong Kun Dang Pharmaceutical Corp., priority 2015, dated 2020)

Biological target: T1, human recombinant HDAC6 (Homo sapiens, UniProt Q9UBN7)
T1 construct: purchased Calbiochem 382180
T1 sequence (Q9UBN7 1-1215): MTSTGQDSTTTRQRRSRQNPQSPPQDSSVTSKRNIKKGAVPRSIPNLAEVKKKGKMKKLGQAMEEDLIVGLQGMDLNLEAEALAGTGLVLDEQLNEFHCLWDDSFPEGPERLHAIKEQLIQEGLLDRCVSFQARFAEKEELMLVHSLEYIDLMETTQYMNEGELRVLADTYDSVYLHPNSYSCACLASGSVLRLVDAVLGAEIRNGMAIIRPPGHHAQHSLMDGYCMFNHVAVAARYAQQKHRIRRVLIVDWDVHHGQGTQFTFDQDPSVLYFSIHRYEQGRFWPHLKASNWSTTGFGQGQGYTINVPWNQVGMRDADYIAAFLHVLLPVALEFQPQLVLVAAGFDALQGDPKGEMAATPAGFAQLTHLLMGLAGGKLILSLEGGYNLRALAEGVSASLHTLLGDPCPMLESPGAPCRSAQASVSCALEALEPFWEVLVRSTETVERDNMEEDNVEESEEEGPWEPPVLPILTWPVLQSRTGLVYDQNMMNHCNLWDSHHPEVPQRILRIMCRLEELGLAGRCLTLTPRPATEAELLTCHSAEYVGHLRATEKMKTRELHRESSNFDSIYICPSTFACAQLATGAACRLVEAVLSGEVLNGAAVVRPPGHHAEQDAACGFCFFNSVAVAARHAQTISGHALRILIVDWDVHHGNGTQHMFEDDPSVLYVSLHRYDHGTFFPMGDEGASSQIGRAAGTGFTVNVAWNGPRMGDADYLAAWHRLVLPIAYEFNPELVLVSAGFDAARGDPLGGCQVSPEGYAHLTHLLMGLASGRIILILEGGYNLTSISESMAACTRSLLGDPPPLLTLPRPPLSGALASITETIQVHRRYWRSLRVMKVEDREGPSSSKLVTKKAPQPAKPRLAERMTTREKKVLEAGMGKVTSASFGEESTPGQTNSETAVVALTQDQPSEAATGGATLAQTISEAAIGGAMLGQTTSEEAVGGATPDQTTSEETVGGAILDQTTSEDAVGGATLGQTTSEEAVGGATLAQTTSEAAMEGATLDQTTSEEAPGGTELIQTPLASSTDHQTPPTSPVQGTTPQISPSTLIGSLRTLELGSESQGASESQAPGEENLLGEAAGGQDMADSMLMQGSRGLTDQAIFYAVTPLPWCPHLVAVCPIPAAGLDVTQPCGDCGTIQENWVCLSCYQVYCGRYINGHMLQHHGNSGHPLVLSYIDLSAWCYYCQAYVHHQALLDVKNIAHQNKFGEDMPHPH
Assay: HDAC6 enzyme activity inhibition assay (HDAC Fluorimetric Drug Discovery Kit)
Assay type: biochemical
Details: for HDAC6 selectivity (fold): HDAC1 vs HDAC6; for IC50: same protocol as the HDAC1 enzyme activity test
Summary of the method: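 5-fold compound dilutions + 0.3 μg enzyme + 10 μM Fluor de Lys-SIRT1 substrate, 60 min, 30° C; Developer II 30 min; fluorescence Ex 360/Em 460; IC50 by curve fit.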

Row | HDAC6 selectivity (fold) | IC50 | Structure (SMILES)
1 | 2906 fold | 34.4 nM | CS(=O)(=O)N(Cc1ccc(-c2nnc(C(F)F)o2)cc1F)c1ccc2ncsc2c1 [Compound 11775, N-(benzo[d]thiazol-6-yl)-N-(4-(5-(difluoromethyl)-1,3,4-oxadiazol-2-yl)-2-fluorobenzyl)methanesulfonamide]
2 | 113 fold | 882 nM | CS(=O)(=O)N(Cc1ccc(-c2nnc(C(F)F)o2)cc1F)c1nncs1 [Compound 11776, N-(4-(5-(difluoromethyl)-1,3,4-oxadiazol-2-yl)-2-fluorobenzyl)-N-(1,3,4-thiadiazol-2-yl)methanesulfonamide]
3 | 3472 fold | 28.8 nM | CCN1CC(N2CCC(S(=O)(=O)N(Cc3ccc(-c4nnc(C(F)F)o4)cc3)c3cccc(Cl)c3)CC2)C1 [Compound 11777, N-(3-chlorophenyl)-N-(4-(5-(difluoromethyl)-1,3,4-oxadiazol-2-yl)benzyl)-1-(1-ethylazetidin-3-yl)piperidine-4-sulfonamide]
4 | 2724 fold | 36.7 nM | CC(C)N1CC(N2CCC(S(=O)(=O)N(Cc3ccc(-c4nnc(C(F)F)o4)cc3)c3cccc(Cl)c3)CC2)C1 [Compound 11778, N-(3-chlorophenyl)-N-(4-(5-(difluoromethyl)-1,3,4-oxadiazol-2-yl)benzyl)-1-(1-isopropylazetidin-3-yl)piperidine-4-sulfonamide]
5 | 2493 fold | 40.1 nM | CC(=O)N1CC(N2CCC(S(=O)(=O)N(Cc3ccc(-c4nnc(C(F)F)o4)cc3)c3cccc(Cl)c3)CC2)C1 [Compound 11779, 1-(1-acetylazetidin-3-yl)-N-(3-chlorophenyl)-N-(4-(5-(difluoromethyl)-1,3,4-oxadiazol-2-yl)benzyl)piperidine-4-sulfonamide]
6 | 1893 fold | 52.8 nM | CCC(=O)N1CC(N2CCC(S(=O)(=O)N(Cc3ccc(-c4nnc(C(F)F)o4)cc3)c3cccc(Cl)c3)CC2)C1 [Compound 11780, N-(3-chlorophenyl)-N-(4-(5-(difluoromethyl)-1,3,4-oxadiazol-2-yl)benzyl)-1-(1-propionylazetidin-3-yl)piperidine-4-sulfonamide]
7 | 5319 fold | 18.8 nM | CC(C)N1CC(N2CCC(S(=O)(=O)N(Cc3ccc(-c4nnc(C(F)F)o4)cn3)c3cccc(Cl)c3)CC2)C1 [Compound 11781, N-(3-chlorophenyl)-N-((5-(5-(difluoromethyl)-1,3,4-oxadiazol-2-yl)pyridin-2-yl)methyl)-1-(1-isopropylazetidin-3-yl)piperidine-4-sulfonamide]
8 | 4032 fold | 24.8 nM | CCC(=O)N1CC(N2CCC(S(=O)(=O)N(Cc3ccc(-c4nnc(C(F)F)o4)cn3)c3cccc(Cl)c3)CC2)C1 [Compound 11782, N-(3-chlorophenyl)-N-((5-(5-(difluoromethyl)-1,3,4-oxadiazol-2-yl)pyridin-2-yl)methyl)-1-(1-propionylazetidin-3-yl)piperidine-4-sulfonamide]
9 | 1440 fold | 69.4 nM | O=C(C1CC1)N1CC(N2CCC(S(=O)(=O)N(Cc3ccc(-c4nnc(C(F)F)o4)cc3)c3cccc(Cl)c3)CC2)C1 [Compound 11783, N-(3-chlorophenyl)-1-(1-(cyclopropanecarbonyl)azetidin-3-yl)-N-(4-(5-(difluoromethyl)-1,3,4-oxadiazol-2-yl)benzyl)piperidine-4-sulfonamide]
10 | 3154 fold | 31.7 nM | O=C(C1CC1)N1CC(N2CCC(S(=O)(=O)N(Cc3ccc(-c4nnc(C(F)F)o4)cn3)c3cccc(Cl)c3)CC2)C1 [Compound 11784, N-(3-chlorophenyl)-1-(1-(cyclopropanecarbonyl)azetidin-3-yl)-N-((5-(5-(difluoromethyl)-1,3,4-oxadiazol-2-yl)pyridin-2-yl)methyl)piperidine-4-sulfonamide]
11 | 2092 fold | 47.8 nM | CN1CC(N2CCC(S(=O)(=O)N(Cc3ccc(-c4nnc(C(F)F)o4)cc3)c3cccc(Cl)c3)CC2)C1 [Compound 11785, N-(3-chlorophenyl)-N-(4-(5-(difluoromethyl)-1,3,4-oxadiazol-2-yl)benzyl)-1-(1-methylazetidin-3-yl)piperidine-4-sulfonamide]
12 | 1828 fold | 54.7 nM | O=S(=O)(CCN1CCC(F)CC1)N(Cc1ccc(-c2nnc(C(F)F)o2)cn1)c1ccc(F)c(Cl)c1 [Compound 11786, N-(3-chloro-4-fluorophenyl)-N-((5-(5-(difluoromethyl)-1,3,4-oxadiazol-2-yl)pyridin-2-yl)methyl)-2-(4-fluoropiperidin-1-yl)ethane-1-sulfonamide]
13 | 2227 fold | 44.6 nM | COCC(C)N1CCC(S(=O)(=O)N(Cc2ccc(-c3nnc(C(F)F)o3)cn2)c2ccccc2)CC1 (centres unmarked) [Compound 11790, N-((5-(5-(difluoromethyl)-1,3,4-oxadiazol-2-yl)pyridin-2-yl)methyl)-1-(1-methoxypropan-2-yl)-N-phenylpiperidine-4-sulfonamide]
14 | 2114 fold | 47.3 nM | O=S(=O)(C1CCN(C2CC(O)C2)CC1)N(Cc1ccc(-c2nnc(C(F)F)o2)cn1)c1ccccc1 (centres unmarked) [Compound 11791, N-((5-(5-(difluoromethyl)-1,3,4-oxadiazol-2-yl)pyridin-2-yl)methyl)-1-(3-hydroxycyclobutyl)-N-phenylpiperidine-4-sulfonamide]
15 | 1218 fold | 82.1 nM | Cc1cccc(N(Cc2ccc(-c3nnc(C(F)F)o3)cc2)S(=O)(=O)C2CCN(C3CC(O)C3)CC2)c1 (centres unmarked) [Compound 11792, N-(4-(5-(difluoromethyl)-1,3,4-oxadiazol-2-yl)benzyl)-1-(3-hydroxycyclobutyl)-N-(m-tolyl)piperidine-4-sulfonamide]
16 | 1718 fold | 58.2 nM | O=S(=O)(C1CCN(C2CC(O)C2)CC1)N(Cc1ccc(-c2nnc(C(F)F)o2)cc1)c1cccc(Cl)c1 (centres unmarked) [Compound 11793, N-(3-chlorophenyl)-N-(4-(5-(difluoromethyl)-1,3,4-oxadiazol-2-yl)benzyl)-1-(3-hydroxycyclobutyl)piperidine-4-sulfonamide]
17 | 2192 fold | 45.6 nM | O=S(=O)(C1CCN(C2CCC2)CC1)N(Cc1ccc(-c2nnc(C(F)F)o2)cn1)c1ccccc1 [Compound 11794, 1-cyclobutyl-N-((5-(5-(difluoromethyl)-1,3,4-oxadiazol-2-yl)pyridin-2-yl)methyl)-N-phenylpiperidine-4-sulfonamide]
18 | 1466 fold | 68.2 nM | O=S(=O)(CCN1CC[C@H](F)C1)N(Cc1ccc(-c2nnc(C(F)F)o2)cc1)c1ccccc1 [Compound 11795, (S)—N-(4-(5-(difluoromethyl)-1,3,4-oxadiazol-2-yl)benzyl)-2-(3-fluoropyrrolidin-1-yl)-N-phenylethane-1-sulfonamide]
19 | 56 fold | 1780 nM | O=S(=O)(CCN(Cc1ccccc1)Cc1ccccc1)N(Cc1ccc(-c2nnc(C(F)F)o2)cc1)c1ccccc1 [Compound 11796, 2-(dibenzylamino)-N-(4-(5-(difluoromethyl)-1,3,4-oxadiazol-2-yl)benzyl)-N-phenylethane-1-sulfonamide]
20 | 821 fold | 122 nM | CN(C)CCS(=O)(=O)N(Cc1ccc(-c2nnc(C(F)F)o2)cc1)c1ccccc1 [Compound 11797, N-(4-(5-(difluoromethyl)-1,3,4-oxadiazol-2-yl)benzyl)-2-(dimethylamino)-N-phenylethane-1-sulfonamide]
21 | 538 fold | 186 nM | CCN(CC)CCS(=O)(=O)N(Cc1ccc(-c2nnc(C(F)F)o2)cc1)c1ccccc1 [Compound 11798, 2-(diethylamino)-N-(4-(5-(difluoromethyl)-1,3,4-oxadiazol-2-yl)benzyl)-N-phenylethane-1-sulfonamide]
22 | 516 fold | 194 nM | O=S(=O)(CCN1CC(O)C1)N(Cc1ccc(-c2nnc(C(F)F)o2)cc1)c1ccccc1 [Compound 11799, N-(4-(5-(difluoromethyl)-1,3,4-oxadiazol-2-yl)benzyl)-2-(3-hydroxyazetidine-1-yl)-N-phenylethane-1-sulfonamide]
